Key:
murine leukemia L1210 = assay: Antitumor activity test on murine leukemia L1210 in vivo; set-up: species or system male BDF1 mice; settings: days 1, 5, 9
Outline: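 Intraperitoneal L1210 model: 1×10^6 cells inoculated i.p. into 6-week-old male BDF1 mice (21±3 g) on day 0, seven per group. Compounds in 0.5% CMC given i.p. on days 1, 5 and 9; vehicle-only controls. T/C % from mean survival time of treated over control.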

[1] = Test for water solubility; assay type: physicochemical; settings: water
Excerpt: 3. Test for water solubility
A standard plot of UV absorbance(220 nm) vs. concentration was made; and employed to determine water-solubility.
The mixture was then passed through a 0.45 micron disposable membrane filter before dilution and UV measurement.

[2] = tested on: murine leukemia L1210 cells; assay: Growth inhibition test on cultured murine leukemia L1210 cells; assay type: cell-based; settings: 48 hours, 37° C., Trypan blue viability
Outline: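 L1210 cells (1×10^5) exposed to graded compound concentrations in RPMI 1640 with 10% fetal calf serum, 37° C, 5% CO2, 48 h. Viability by 0.17% Trypan blue staining, relative to untreated control cells.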

ICR mice = assay: Acute toxicity test; assay type: in vivo; set-up: Lethality: unit not given here; settings: for Lethality: 10080 min
Method: 7-week-old ICR mice(male: 34±2 g; female: 31±2 g) were fed with solid food and water under the condition of 23±1° C. temperature and 65±5% humidity before the test.
Each treatment group consisted of 6 mice. The test compounds were administered intraperitoneally.
For 7 days after the administration, the appearance and the fate of the tested animals were recorded. The dead animals were subjected to autopsy and their visible pathological changes were observed. Their viscerals were stored in 10% formalin solution.

SMILES: CC1OC2C[NH2+][Pt-2]3([NH2+]CC2O1)[O]C(=O)C1(CCC1)C(=O)[O]3 [Example 22, cis-cyclobutane-1,1-dicarboxylato[(4R,5R)-4,5-bis(aminomethyl)-2-methyl-1,3-dioxolane]platinum(II)]
- T/C (%) (murine leukemia L1210; 6.2 mg/kg i.p.): 125%
- T/C (%) (murine leukemia L1210; 12.5 mg/kg i.p.): 129%
- T/C (%) (murine leukemia L1210; 25 mg/kg i.p.): 247%
- T/C (%) (murine leukemia L1210; 50 mg/kg i.p.): 262%
- T/C (%) (murine leukemia L1210; 100 mg/kg i.p.): 382%
- Solubility in water [1]: 24.9 mg/mL
- IC50 (concentration required for 50% inhibition of growth) [2]: 0.90 µg/mL
- Number of dead mice for 7 days (ICR mice; female, 94 mg/kg i.p.): 0/6
- Number of dead mice, 1st day (ICR mice; female, 94 mg/kg i.p.): 0/6
- Number of dead mice for 7 days (ICR mice; female, 123 mg/kg i.p.): 1/6
- Number of dead mice, 1st day (ICR mice; female, 123 mg/kg i.p.): 0/6
- Number of dead mice, 4th day (ICR mice; female, 123 mg/kg i.p.): 1/6
- Lethality (ICR mice; female, 123 mg/kg i.p.): 16.7
- Number of dead mice for 7 days (ICR mice; female, 160 mg/kg i.p.): 3/6
- Number of dead mice, 1st day (ICR mice; female, 160 mg/kg i.p.): 0/6
- Number of dead mice, 4th day (ICR mice; female, 160 mg/kg i.p.): 2/6
- Number of dead mice, 5th day (ICR mice; female, 160 mg/kg i.p.): 1/4
- Lethality (ICR mice; female, 160 mg/kg i.p.): 50.0
- Number of dead mice for 7 days (ICR mice; female, 208 mg/kg i.p.): 5/6
- Number of dead mice, 1st day (ICR mice; female, 208 mg/kg i.p.): 0/6
- Number of dead mice, 3rd day (ICR mice; female, 208 mg/kg i.p.): 1/6
- Number of dead mice, 4th day (ICR mice; female, 208 mg/kg i.p.): 4/5
- Lethality (ICR mice; female, 208 mg/kg i.p.): 83.3
- Number of dead mice for 7 days (ICR mice; female, 270 mg/kg i.p.): 6/6
- Number of dead mice, 1st day (ICR mice; female, 270 mg/kg i.p.): 0/6
- Number of dead mice, 2nd day (ICR mice; female, 270 mg/kg i.p.): 4/6
- Number of dead mice, 3rd day (ICR mice; female, 270 mg/kg i.p.): 2/2
- Lethality (ICR mice; female, 270 mg/kg i.p.): 100.0
- Number of dead mice for 7 days (ICR mice; male, 94 mg/kg i.p.): 0/6
- Number of dead mice, 1st day (ICR mice; male, 94 mg/kg i.p.): 0/6
- Number of dead mice for 7 days (ICR mice; male, 123 mg/kg i.p.): 0/6
- Number of dead mice, 1st day (ICR mice; male, 123 mg/kg i.p.): 0/6
- Number of dead mice for 7 days (ICR mice; male, 160 mg/kg i.p.): 4/6
- Number of dead mice, 1st day (ICR mice; male, 160 mg/kg i.p.): 1/6
- Number of dead mice, 4th day (ICR mice; male, 160 mg/kg i.p.): 1/5
- Number of dead mice, 5th day (ICR mice; male, 160 mg/kg i.p.): 1/4
- Number of dead mice, 6th day (ICR mice; male, 160 mg/kg i.p.): 1/3
- Lethality (ICR mice; male, 160 mg/kg i.p.): 66.7
- Number of dead mice for 7 days (ICR mice; male, 208 mg/kg i.p.): 5/6
- Number of dead mice, 1st day (ICR mice; male, 208 mg/kg i.p.): 0/6
- Number of dead mice, 4th day (ICR mice; male, 208 mg/kg i.p.): 4/6
- Number of dead mice, 5th day (ICR mice; male, 208 mg/kg i.p.): 1/2
- Lethality (ICR mice; male, 208 mg/kg i.p.): 83.3
- Number of dead mice for 7 days (ICR mice; male, 270 mg/kg i.p.): 6/6
- Number of dead mice, 1st day (ICR mice; male, 270 mg/kg i.p.): 0/6
- Number of dead mice, 2nd day (ICR mice; male, 270 mg/kg i.p.): 2/6
- Number of dead mice, 3rd day (ICR mice; male, 270 mg/kg i.p.): 4/4
- Lethality (ICR mice; male, 270 mg/kg i.p.): 100.0

SMILES: O=C1[O][Pt-2]2([NH2+]CC3OCOC3C[NH2+]2)[O]C(=O)C12CCC2 [Example 20, cis-cyclobutane-1,1-dicarboxylato [(4R,5R)-4,5-bis(aminomethyl)-1,3-dioxolane]platinum (II)]
- T/C (%) (murine leukemia L1210; 6.2 mg/kg i.p.): 122%
- T/C (%) (murine leukemia L1210; 12.5 mg/kg i.p.): 187%
- T/C (%) (murine leukemia L1210; 25 mg/kg i.p.): 137%
- T/C (%) (murine leukemia L1210; 50 mg/kg i.p.): 193%
- T/C (%) (murine leukemia L1210; 100 mg/kg i.p.): 271%
- Solubility in water [1]: 3.1 mg/mL
- IC50 (concentration required for 50% inhibition of growth) [2]: 1.28 µg/mL
- Number of dead mice for 7 days (ICR mice; female, 94 mg/kg i.p.): 0/6
- Number of dead mice, 1st day (ICR mice; female, 94 mg/kg i.p.): 0/6
- Number of dead mice for 7 days (ICR mice; female, 123 mg/kg i.p.): 2/6
- Number of dead mice, 1st day (ICR mice; female, 123 mg/kg i.p.): 0/6
- Number of dead mice, 4th day (ICR mice; female, 123 mg/kg i.p.): 2/6
- Lethality (ICR mice; female, 123 mg/kg i.p.): 33.3
- Number of dead mice for 7 days (ICR mice; female, 160 mg/kg i.p.): 4/6
- Number of dead mice, 1st day (ICR mice; female, 160 mg/kg i.p.): 0/6
- Number of dead mice, 4th day (ICR mice; female, 160 mg/kg i.p.): 2/6
- Number of dead mice, 5th day (ICR mice; female, 160 mg/kg i.p.): 2/4
- Lethality (ICR mice; female, 160 mg/kg i.p.): 66.7
- Number of dead mice for 7 days (ICR mice; female, 208 mg/kg i.p.): 6/6
- Number of dead mice, 1st day (ICR mice; female, 208 mg/kg i.p.): 0/6
- Number of dead mice, 3rd day (ICR mice; female, 208 mg/kg i.p.): 1/6
- Number of dead mice, 4th day (ICR mice; female, 208 mg/kg i.p.): 5/5
- Lethality (ICR mice; female, 208 mg/kg i.p.): 100.0
- Number of dead mice for 7 days (ICR mice; female, 270 mg/kg i.p.): 6/6
- Number of dead mice, 1st day (ICR mice; female, 270 mg/kg i.p.): 0/6
- Number of dead mice, 2nd day (ICR mice; female, 270 mg/kg i.p.): 4/6
- Number of dead mice, 3rd day (ICR mice; female, 270 mg/kg i.p.): 2/2
- Lethality (ICR mice; female, 270 mg/kg i.p.): 100.0
- Number of dead mice for 7 days (ICR mice; male, 94 mg/kg i.p.): 0/6
- Number of dead mice, 1st day (ICR mice; male, 94 mg/kg i.p.): 0/6
- Number of dead mice for 7 days (ICR mice; male, 123 mg/kg i.p.): 2/6
- Number of dead mice, 1st day (ICR mice; male, 123 mg/kg i.p.): 1/6
- Number of dead mice, 5th day (ICR mice; male, 123 mg/kg i.p.): 1/5
- Lethality (ICR mice; male, 123 mg/kg i.p.): 33.3
- Number of dead mice for 7 days (ICR mice; male, 160 mg/kg i.p.): 5/6
- Number of dead mice, 1st day (ICR mice; male, 160 mg/kg i.p.): 0/6
- Number of dead mice, 4th day (ICR mice; male, 160 mg/kg i.p.): 2/6
- Number of dead mice, 5th day (ICR mice; male, 160 mg/kg i.p.): 1/4
- Number of dead mice, 6th day (ICR mice; male, 160 mg/kg i.p.): 2/3
- Lethality (ICR mice; male, 160 mg/kg i.p.): 83.3
- Number of dead mice for 7 days (ICR mice; male, 208 mg/kg i.p.): 6/6
- Number of dead mice, 1st day (ICR mice; male, 208 mg/kg i.p.): 0/6
- Number of dead mice, 4th day (ICR mice; male, 208 mg/kg i.p.): 6/6
- Lethality (ICR mice; male, 208 mg/kg i.p.): 100.0
- Number of dead mice for 7 days (ICR mice; male, 270 mg/kg i.p.): 6/6
- Number of dead mice, 1st day (ICR mice; male, 270 mg/kg i.p.): 0/6
- Number of dead mice, 2nd day (ICR mice; male, 270 mg/kg i.p.): 4/6
- Number of dead mice, 3rd day (ICR mice; male, 270 mg/kg i.p.): 2/2
- Lethality (ICR mice; male, 270 mg/kg i.p.): 100.0

Reference: patent publication US5395947A, “Platinum(II) complex and processes for preparing the same” (Sunkyong Industries, Ltd., priority 1991, dated 1995)
